EC50 data for four compounds are collected here from ChEMBL document CHEMBL1139559, “Radical scavenging activity of protein from tentacles of jellyfish Rhopilema esculentum” (Bioorg Med Chem Lett, 2005).

Values after ≈ are worked out from the molar mass of the structure shown.

A short description of experiment [1]: Effective concentration required for scavenging of superoxide anion radical generation from the tentical protein of jellyfish. Format: functional, Rhopilema esculentum.
Experiment [2] is described as follows: Effective concentration required for scavenging of hydroxyl radical generation from the tentical protein of jellyfish. Type of experiment: functional, Rhopilema esculentum.

In experiment [1], `Cc1c(C)c2c(c(C)c1O)CC[C@@](C)(CCC[C@H](C)CCC[C@H](C)CCCC(C)C)O2` [ALPHA-TOCOPHEROL] displayed an EC50 of 88 µg/mL (≈ 204 µM).

Consider `COc1ccc(O)c(C(C)(C)C)c1.COc1ccc(O)cc1C(C)(C)C` [BUTYLATED HYDROXYANISOLE], for which, in experiment [1], the EC50 turned out to be 31 µg/mL.

As for `Cc1cc(C(C)(C)C)c(O)c(C(C)(C)C)c1` [BUTYLATED HYDROXYTOLUENE], the EC50 in experiment [1] was 61 µg/mL (≈ 277 µM).

The compound `OC[C@@H](O)[C@@H](O)[C@H](O)[C@H](O)CO` [MANNITOL] gave an EC50 in experiment [2] of 4536 µg/mL (≈ 24900 µM).

In general, EC50 refers to the concentration needed to bring the measured effect to its halfway point. Higher therefore signals a need for much substance.
